From patent US5693324A, “Tris(isonitrile) copper(I) sulfates for preparing radionuclide complexes” (The DuPont Merck Pharmaceutical Company, priority 1995, dated 1997) come the findings set out here.

The nature of this series: water solubility of tris(isonitrile)copper(I) complexes. Format: physicochemical.

For the molecule `O=S(=O)([O-])[O-].[C-]#[N+]CC(C)(C)OC.[C-]#[N+]CC(C)(C)OC.[C-]#[N+]CC(C)(C)OC.[C-]#[N+]CC(C)(C)OC.[C-]#[N+]CC(C)(C)OC.[C-]#[N+]CC(C)(C)OC.[Cu+].[Cu+]` [[Cu(MIBI)3]2 [SO4], tris(1-isocyano-2-methoxy-2-methylpropane)copper(I) sulfate], the “water solubility, relative” value (compared with the tris(isonitrile)copper(I) adducts of U.S. Pat. No. 4,885,100) is recorded as “more soluble”. The water solubility (sulfate complexes of the present invention, in water) was above 100 mg/mL.
